Values of other authors as cited in patent US20110008801A1, “METHODS FOR MEASURING CELL-CELL OR CELL-MATRIX ADHESIVE FORCES AND COMPOUNDS FOR DISRUPTING ADHESIVE FORCES IN BIOLOGICAL SYSTEMS” (Worcester Polytechnic Institute, priority 2006, published 2011).

Tested on: UPEC, type 1 and P fimbriated E. coli

Compound: O=C(CO)[C@@H](O)[C@H](O)[C@H](O)CO [fructose]
- adhesion of fimbriated E. coli: inhibited the adhesion of bacteria with type 1 fimbriae only
